Measurements as given in US8129355B2, “Ketone ligands for modulating the expression of exogenous genes via an ecdysone receptor complex” (priority 2002, dated 2012).
Like-named read-outs stand apart in the source and are kept apart here.

Target: T1, Bombyx mori EcR (VP16 fusion, switch construct CVBE) with 6XEcRE LacZ reporter (Bombyx mori, UniProt P49881)
T1 construct: expressed in transfected cells; host or cells: Human 293 kidney (HEK-293) cells, retrovirally infected, clone Z3
T1 sequence (P49881 86-606 limits assumed): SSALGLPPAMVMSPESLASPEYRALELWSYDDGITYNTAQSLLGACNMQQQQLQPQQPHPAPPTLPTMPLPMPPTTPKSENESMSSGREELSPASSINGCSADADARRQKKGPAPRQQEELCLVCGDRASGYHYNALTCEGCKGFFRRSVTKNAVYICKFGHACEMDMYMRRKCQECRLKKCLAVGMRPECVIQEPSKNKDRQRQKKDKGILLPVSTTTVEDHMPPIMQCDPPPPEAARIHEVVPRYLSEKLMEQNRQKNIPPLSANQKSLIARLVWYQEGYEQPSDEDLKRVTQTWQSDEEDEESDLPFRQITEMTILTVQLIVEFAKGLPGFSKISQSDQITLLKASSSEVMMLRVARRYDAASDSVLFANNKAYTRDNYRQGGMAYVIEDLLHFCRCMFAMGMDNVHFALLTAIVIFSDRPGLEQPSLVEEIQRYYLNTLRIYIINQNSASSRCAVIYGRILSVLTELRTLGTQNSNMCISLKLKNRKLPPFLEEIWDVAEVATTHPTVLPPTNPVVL
T1 sequence (P19793 1-462 partner): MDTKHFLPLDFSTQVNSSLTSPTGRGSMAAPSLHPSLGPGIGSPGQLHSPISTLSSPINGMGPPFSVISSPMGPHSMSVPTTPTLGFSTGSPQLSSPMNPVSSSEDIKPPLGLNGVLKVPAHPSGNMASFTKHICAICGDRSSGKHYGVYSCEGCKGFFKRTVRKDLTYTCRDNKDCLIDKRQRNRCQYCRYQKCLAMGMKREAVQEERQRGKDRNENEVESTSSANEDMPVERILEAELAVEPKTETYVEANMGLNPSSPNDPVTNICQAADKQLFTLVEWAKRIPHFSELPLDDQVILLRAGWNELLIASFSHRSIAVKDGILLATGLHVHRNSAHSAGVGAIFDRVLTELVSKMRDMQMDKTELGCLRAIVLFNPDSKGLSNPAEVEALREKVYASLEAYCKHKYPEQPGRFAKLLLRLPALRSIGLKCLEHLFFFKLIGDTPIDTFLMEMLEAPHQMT
Assay: Z3 assay: β-galactosidase (LacZ) reporter gene fold induction in stably transformed human 293 kidney cells (clone Z3)
Format: cell-based
How it was run: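 β-Galactosidase read 48 h after dosing by bioluminescent assay; ligand added at 33 μM with DMSO held at 0.03%. The cells are stable 293 clone Z3, expressing a CMV-driven VP16 fusion of Bombyx mori EcR residues 26-546 plus six EcRE copies upstream of lacZ.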

[1] = average; dose response, three-parameter logistic model; read-out: Z3 LC50
[2] = maximum fold induction at any concentration relative to that of GS-E ligand
[3] = single dose 33 μM; ligand treated / DMSO treated cells
[4] = read-out: Fold Induction Average, Z3 Assay (33 μM)
[5] = read-out: Z3 LC50; average; dose response, three-parameter logistic model
[6] = single dose 33 μM; ligand treated / DMSO treated cells; read-out: Fold Induction Average, Z3 Assay (33 μM)

Row | Structure (SMILES) | CC50 [1] | Z3 Rel Max FI [2] | Fold Induction Average, Z3 Assay (33 μM) [3] | fold induction at 33 µM [4] | CC50 [5] | fold induction at 33 µM [6]
1 | COC(=O)CN1CCCC(NC(=O)c2cccc(OC)c2C)(C(=O)c2cc(C)cc(C)c2)C1 (racemic) [Example 156] | ~20 µM | 0.03 | 78 |  |  | 
2 | COc1cccc(C(=O)C2(NC(=O)c3cccc(OC)c3C)CCCCC2)c1 [Example 4] |  | 0.54 |  | 233 | 1.19 µM | 
3 | COc1cccc(C(=O)NC2(C(=O)c3cccc(C)c3)CCCCC2)c1C [Example 7] |  | 0.78 |  | 811 | 3.51 µM | 
4 | COc1cccc(C(=O)NC2(C(=O)c3cc(C)cc(C)c3)CCCC2)c1C [Example 10] | 1.87 µM | 0.85 |  |  |  | 464
5 | COc1cccc(C(=O)NC2(C(=O)c3cc(C)cc(C)c3)CCCCC2)c1C [Example 11] | 1.41 µM | 0.99 |  |  |  | 722
6 | COc1cccc(C(=O)NC(C)(Cc2ccccc2)C(=O)c2cc(C)cc(C)c2)c1C (stereo not drawn) [Example 12] |  | 0.09 |  | 76 | 10 µM | 
7 | COc1cccc(C(=O)NC2(C(=O)c3cc(C)cc(C)c3)CC2)c1C [Example 13] |  | 0.22 |  | 293 | 20.4 µM | 
8 | COc1cccc(C(=O)NC2(C(=O)c3cc(C)cc(C)c3)CCC2)c1C [Example 14] | 8.52 µM | 0.69 |  |  |  | 945
9 | COc1cccc(C(=O)NC2(C(=O)c3ccc(C)cc3)CCCCC2)c1C [Example 15] |  | 0.70 |  | 921 | 3.01 µM | 
10 | COc1cccc(C(=O)NC2(C(=O)c3ccc(F)c(C)c3)CCCC2)c1C [Example 17] |  | 0.43 |  | 393 | 3.47 µM | 
11 | COc1cccc(C(=O)NC2(C(=O)c3ccc(F)c(C)c3)CCCCC2)c1C [Example 18] |  | 0.67 |  | 657 | 3.41 µM | 
12 | COc1cccc(C(=O)NC(C)(C(=O)c2cc(C)cc(C)c2)C(C)C)c1C (stereo not drawn) [Example 20] |  | 0.75 |  | 573 | 2.06 µM | 
13 | CCc1c(OC)cccc1C(=O)NC1(C(=O)c2ccccc2)CCCC1 [Example 21] |  | 0.33 |  | 305 | ~15 µM | 
14 | CCc1c(C(=O)NC2(C(=O)c3ccccc3)CCCC2)ccc2c1OCCO2 [Example 22] |  | 0.48 |  | 602 | ~10 µM | 
15 | COc1cccc(C(=O)NC2(C(=O)c3cccc(C)c3)CCOCC2)c1C [Example 25] |  | 0.07 |  | 19 | ~20 µM | 
16 | COc1cccc(C(=O)NC2(C(=O)c3cccc(C)c3)CCSCC2)c1C [Example 26] |  | 0.60 |  | 751 | ~15 µM | 
17 | COc1cccc(C(=O)NC2(C(=O)c3cc(C)cc(C)c3)CCOCC2)c1C [Example 27] |  | 0.81 |  | 562 | 10 µM | 
18 | COc1cccc(C(=O)NC2(C(=O)c3cc(C)cc(C)c3)CCSCC2)c1C [Example 28] | 1.6 µM | 0.98 |  |  |  | 1220
19 | COc1cccc(C(=O)NC2(C(=O)c3cc(C)cc(C)c3)CCC3(CC2)OCCO3)c1C [Example 29] |  | 0.06 |  | 116 | ~15 µM | 
20 | COc1ccccc1C(=O)C(C)(NC(=O)c1cccc(OC)c1C)C(C)C (stereo not drawn) [Example 30] |  | 0.20 |  | 485 | ~15 µM | 
21 | COc1cccc(C(=O)NC(C)(C(=O)c2cccc(C)c2)C(C)C)c1C (stereo not drawn) [Example 31] | 8.61 µM | 0.47 |  |  |  | 312
22 | COc1cccc(C(=O)C(C)(NC(=O)c2cccc(OC)c2C)C(C)C)c1 (stereo not drawn) [Example 32] |  | 0.12 |  | 33 | 25.5 µM | 
23 | COc1cccc(C(=O)NC(C)(C(=O)c2ccc(C)cc2)C(C)C)c1C (stereo not drawn) [Example 33] | ~20 µM | 0.05 |  |  |  | 31

Row | Structure (SMILES) | CC50 [1] | Z3 Rel Max FI [2] | Fold Induction Average, Z3 Assay (33 μM) [3] | fold induction at 33 µM [4] | CC50 [5] | fold induction at 33 µM [6]
24 | COc1cccc(C(=O)NC(C)(C(=O)c2ccccc2)C(C)C)c1C (stereo not drawn) [Example 34] |  | 0.04 |  | 66 | > 33 µM | 
25 | CCC(CC)(NC(=O)c1cccc(OC)c1C)C(=O)c1ccccc1OC [Example 37] |  | 0.29 |  | 327 | 6.19 µM | 
26 | CCC(CC)(NC(=O)c1cccc(OC)c1C)C(=O)c1ccc(F)cc1 [Example 38] | 13.7 µM | 0.04 |  |  |  | 51
27 | COc1ccccc1C(=O)C1(NC(=O)c2cccc(OC)c2C)CCCC1 [Example 40] |  | 0.70 |  | 951 | 5.16 µM | 
28 | COc1cccc(C(=O)NC2(C(=O)c3ccc(F)cc3)CCCC2)c1C [Example 42] |  | 0.14 |  | 153 | ~15 µM | 
29 | COc1cccc(C(=O)NC2(C(=O)c3ccccc3C)CCCCC2)c1C [Example 44] |  | 0.23 |  | 94 | 16.8 µM | 
30 | COc1ccccc1C(=O)C1(NC(=O)c2cccc(OC)c2C)CCCCC1 [Example 45] |  | 0.84 |  | 665 | 0.98 µM | 
31 | COc1ccc(C(=O)C2(NC(=O)c3cccc(OC)c3C)CCCCC2)cc1 [Example 46] |  | 0.03 |  | 15 | > 33 µM | 
32 | CCC(CC)(NC(=O)c1cccc(OC)c1C)C(=O)c1cccc(C)c1 [Example 48] | 6.61 µM | 0.25 |  |  |  | 356
33 | CCC(CC)(NC(=O)c1cccc(OC)c1C)C(=O)c1cccc(OC)c1 [Example 49] |  | 0.01 |  | 182 | > 33 µM | 
34 | CCC(CC)(NC(=O)c1cccc(OC)c1C)C(=O)c1ccc(F)c(C)c1 [Example 50] |  | 0.07 |  | 178 | 10.4 µM | 
35 | CCC(CC)(NC(=O)c1cccc(OC)c1C)C(=O)c1cc(C)cc(C)c1 [Example 51] | 4.53 µM | 0.61 |  |  |  | 817
36 | COc1cccc(C(=O)NC(C)(CC(C)C)C(=O)c2cccc(C)c2)c1C (stereo not drawn) [Example 52] |  | 0.24 |  | 239 | 6.09 µM | 
37 | COc1cccc(C(=O)C(C)(CC(C)C)NC(=O)c2cccc(OC)c2C)c1 (stereo not drawn) [Example 53] |  | 0.11 |  | 112 | 23.7 µM | 
38 | COc1cccc(C(=O)NC(C)(CC(C)C)C(=O)c2cc(C)cc(C)c2)c1C (stereo not drawn) [Example 55] |  | 0.72 |  | 309 | 3.4 µM | 
39 | COc1cccc(C(=O)NC2(C(=O)c3ccc(F)cc3)CCCCC2)c1C [Example 60] |  | 0.61 |  | 817 | ~6 µM | 
40 | COc1cccc(C(=O)NC2(C(=O)c3cc(C)cc(C)c3)CCS(=O)(=O)CC2)c1C [Example 62] |  | 0.10 |  | 347 | ~15 µM | 
41 | COc1cccc(C(=O)NC(C)(C(=O)c2ccccc2C)C(C)C)c1C (stereo not drawn) [Example 63] | 17.9 µM | 0.26 |  |  |  | 453
42 | COc1ccc(C(=O)C2(NC(=O)c3cccc(OC)c3C)CCCCC2)c(OC)n1 [Example 64] |  | 0.77 |  | 1160 | 2.62 µM | 
43 | COc1cc(C(=O)C2(NC(=O)c3cccc(OC)c3C)CCCC2)cc(OC)c1C [Example 65] | 8.84 µM | 0.06 | 151 |  |  | 
44 | COc1cc(C(=O)C2(NC(=O)c3cccc(OC)c3C)CCCCC2)cc(OC)c1C [Example 66] |  | 0.17 |  | 341 | 3.33 µM | 
45 | COc1cccc(C(=O)NC2(C(=O)c3cc(F)c(F)c(OC)c3)CCCC2)c1C [Example 67] |  | 0.54 |  | 666 | 4.17 µM | 
